How the values were obtained:
[1] = target: T1, Phospho-EGFR (Tyr1068) in A431 cells (Homo sapiens, UniProt P00533); experiment: HTRF pEGFR/total EGFR assay in A431 cells (EGF stimulated); format: cell-based; conditions: compound 2.5 hours then 100 ng/ml EGF 30 mins, ratio pEGFR/total EGFR
T1 construct: endogenous in cells; host or cells: A431
Summary of the method: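 HTRF readout (665 and 620 nm) of Tyr1068-phosphorylated versus total EGFR in lysed A431 cells, expressed as ratio relative to 0uM control (%). Compound exposure 2.5 h in duplicate at 0.1% DMSO, with 100 ng/ml EGF added for 30 min.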

[2] = target: CtermHisTag-mEGFR Triple Mutant - C797S, L858R, T790M (Homo sapiens, UniProt P00533, C797S/L858R/T790M); experiment: TR-FRET probe displacement assay, EGFR triple mutant; format: binding; conditions: T790M 1.25 nM, probe 100 nM, 30 mins room temperature
Summary of the method: (§1)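 Probe displacement from His-tagged wild-type or triple-mutant EGFR measured by TR-FRET (excitation 337 nm, emission 490/520 nm). Compounds spanned final concentrations from 3 to 100000 nM over ten points; technical replicates, repeated twice biologically.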

[3] = target: CtermHisTag-mEGFR Wild type (Homo sapiens, UniProt P00533); experiment: TR-FRET probe displacement assay, EGFR wild type; format: binding; conditions: EGFR wild type 1.25 nM, probe 100 nM, 30 mins room temperature
Summary of the method: as §1

[4] = target: T2, Phospho-EGFR (Tyr1068) in H1975 cells (Homo sapiens, UniProt P00533, L858R/T790M); experiment: HTRF pEGFR/total EGFR assay in H1975 cells; format: cell-based; conditions: compound 3 hours, ratio pEGFR/total EGFR
T2 construct: host or cells: H1975
Summary of the method: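 H1975 cells (EGFR L858R/T790M) adhered 24 h, then compound-treated for 3 h in duplicate, 0.1% DMSO final. Lysates read by HTRF at 665/620 nm for phospho-Tyr1068 and total EGFR. Value is pEGFR/total EGFR ratio as % of 0 uM control.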

[5] = target: T3, Phospho-EGFR (Tyr1068) in H1975 C797S cells (Homo sapiens, UniProt P00533, C797S/L858R/T790M); experiment: HTRF pEGFR/total EGFR assay in H1975 C797S cells; format: cell-based; conditions: H1975 C797S cells (CRISPR), compound 3 hours, ratio pEGFR/total EGFR
T3 construct: endogenous in cells; host or cells: H1975 C797S (CRISPR-edited in house from ATCC CRL-5908)
Summary of the method: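 Phospho-EGFR (Tyr1068) and total EGFR were measured by HTRF (665 and 620 nm) in lysates of NGS-validated H1975 EGFR C797S cells. Cells were dosed for 3 h in duplicate, 0.1% DMSO final. Read-out is the pEGFR/total EGFR ratio relative to the 0 uM control, as percent.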

CtermHisTag-mEGFR Wild type, sequence (P00533 25-1210): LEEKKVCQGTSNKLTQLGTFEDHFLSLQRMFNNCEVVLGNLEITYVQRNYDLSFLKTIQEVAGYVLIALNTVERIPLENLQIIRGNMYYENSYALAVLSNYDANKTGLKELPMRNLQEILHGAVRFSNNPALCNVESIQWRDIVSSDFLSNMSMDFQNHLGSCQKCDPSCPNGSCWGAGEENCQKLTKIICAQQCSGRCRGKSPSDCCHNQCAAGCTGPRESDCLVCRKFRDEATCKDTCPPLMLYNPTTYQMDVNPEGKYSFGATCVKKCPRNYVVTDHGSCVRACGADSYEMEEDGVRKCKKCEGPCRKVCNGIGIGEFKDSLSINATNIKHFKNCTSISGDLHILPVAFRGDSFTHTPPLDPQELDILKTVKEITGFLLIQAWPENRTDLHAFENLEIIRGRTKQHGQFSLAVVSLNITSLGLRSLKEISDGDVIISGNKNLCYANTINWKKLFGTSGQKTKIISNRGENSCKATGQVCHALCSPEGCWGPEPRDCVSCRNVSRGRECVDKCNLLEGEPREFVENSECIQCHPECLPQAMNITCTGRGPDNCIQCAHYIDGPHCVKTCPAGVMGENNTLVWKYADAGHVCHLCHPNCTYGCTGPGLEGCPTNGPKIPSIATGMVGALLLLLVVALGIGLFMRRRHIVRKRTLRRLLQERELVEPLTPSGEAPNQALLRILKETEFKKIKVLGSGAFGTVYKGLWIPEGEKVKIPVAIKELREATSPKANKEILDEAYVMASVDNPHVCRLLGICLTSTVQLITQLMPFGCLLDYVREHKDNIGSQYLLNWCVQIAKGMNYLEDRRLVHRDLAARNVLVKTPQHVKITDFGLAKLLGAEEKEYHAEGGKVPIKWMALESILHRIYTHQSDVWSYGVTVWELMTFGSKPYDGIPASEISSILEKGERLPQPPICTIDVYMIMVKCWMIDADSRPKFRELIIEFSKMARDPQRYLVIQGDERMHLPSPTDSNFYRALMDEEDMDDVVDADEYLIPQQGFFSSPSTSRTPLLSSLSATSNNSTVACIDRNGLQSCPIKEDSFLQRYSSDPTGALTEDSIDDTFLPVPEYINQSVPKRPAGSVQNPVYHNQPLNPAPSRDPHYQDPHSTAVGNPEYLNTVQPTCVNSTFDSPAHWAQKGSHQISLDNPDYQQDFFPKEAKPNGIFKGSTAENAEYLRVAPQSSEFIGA
T1 sequence (P00533 25-1210): as above
T2 sequence (P00533 25-1210 T790M/L858R): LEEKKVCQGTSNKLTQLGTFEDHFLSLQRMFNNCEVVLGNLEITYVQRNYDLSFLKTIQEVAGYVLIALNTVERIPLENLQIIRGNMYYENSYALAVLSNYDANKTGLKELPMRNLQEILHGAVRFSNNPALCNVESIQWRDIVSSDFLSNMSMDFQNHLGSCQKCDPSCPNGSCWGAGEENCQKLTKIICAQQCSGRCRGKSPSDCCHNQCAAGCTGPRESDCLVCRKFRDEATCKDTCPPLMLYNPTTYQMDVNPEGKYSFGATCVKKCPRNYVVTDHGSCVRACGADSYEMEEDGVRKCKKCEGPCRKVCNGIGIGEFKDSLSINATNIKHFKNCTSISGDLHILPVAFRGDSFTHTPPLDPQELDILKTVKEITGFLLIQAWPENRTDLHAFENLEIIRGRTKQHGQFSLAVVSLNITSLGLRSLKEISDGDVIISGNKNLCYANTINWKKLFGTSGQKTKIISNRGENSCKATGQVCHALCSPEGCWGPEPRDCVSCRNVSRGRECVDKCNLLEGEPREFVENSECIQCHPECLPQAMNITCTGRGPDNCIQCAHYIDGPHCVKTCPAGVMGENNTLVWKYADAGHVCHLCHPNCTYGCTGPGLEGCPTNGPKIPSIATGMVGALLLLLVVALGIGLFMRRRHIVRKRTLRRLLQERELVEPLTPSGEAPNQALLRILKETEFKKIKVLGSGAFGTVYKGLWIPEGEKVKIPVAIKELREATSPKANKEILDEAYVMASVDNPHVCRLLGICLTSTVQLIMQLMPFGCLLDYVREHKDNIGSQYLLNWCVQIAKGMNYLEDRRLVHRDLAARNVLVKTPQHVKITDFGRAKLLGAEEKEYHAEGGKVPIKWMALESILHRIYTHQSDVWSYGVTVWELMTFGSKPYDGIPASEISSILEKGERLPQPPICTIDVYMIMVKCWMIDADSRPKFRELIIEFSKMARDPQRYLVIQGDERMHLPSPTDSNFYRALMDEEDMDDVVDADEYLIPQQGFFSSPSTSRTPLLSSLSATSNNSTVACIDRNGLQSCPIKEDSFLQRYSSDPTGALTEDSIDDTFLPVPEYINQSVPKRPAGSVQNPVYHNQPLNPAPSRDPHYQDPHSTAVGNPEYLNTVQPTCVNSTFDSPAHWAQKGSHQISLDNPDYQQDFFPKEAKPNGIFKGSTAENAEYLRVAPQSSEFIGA
T3 sequence (P00533 25-1210 T790M/C797S/L858R): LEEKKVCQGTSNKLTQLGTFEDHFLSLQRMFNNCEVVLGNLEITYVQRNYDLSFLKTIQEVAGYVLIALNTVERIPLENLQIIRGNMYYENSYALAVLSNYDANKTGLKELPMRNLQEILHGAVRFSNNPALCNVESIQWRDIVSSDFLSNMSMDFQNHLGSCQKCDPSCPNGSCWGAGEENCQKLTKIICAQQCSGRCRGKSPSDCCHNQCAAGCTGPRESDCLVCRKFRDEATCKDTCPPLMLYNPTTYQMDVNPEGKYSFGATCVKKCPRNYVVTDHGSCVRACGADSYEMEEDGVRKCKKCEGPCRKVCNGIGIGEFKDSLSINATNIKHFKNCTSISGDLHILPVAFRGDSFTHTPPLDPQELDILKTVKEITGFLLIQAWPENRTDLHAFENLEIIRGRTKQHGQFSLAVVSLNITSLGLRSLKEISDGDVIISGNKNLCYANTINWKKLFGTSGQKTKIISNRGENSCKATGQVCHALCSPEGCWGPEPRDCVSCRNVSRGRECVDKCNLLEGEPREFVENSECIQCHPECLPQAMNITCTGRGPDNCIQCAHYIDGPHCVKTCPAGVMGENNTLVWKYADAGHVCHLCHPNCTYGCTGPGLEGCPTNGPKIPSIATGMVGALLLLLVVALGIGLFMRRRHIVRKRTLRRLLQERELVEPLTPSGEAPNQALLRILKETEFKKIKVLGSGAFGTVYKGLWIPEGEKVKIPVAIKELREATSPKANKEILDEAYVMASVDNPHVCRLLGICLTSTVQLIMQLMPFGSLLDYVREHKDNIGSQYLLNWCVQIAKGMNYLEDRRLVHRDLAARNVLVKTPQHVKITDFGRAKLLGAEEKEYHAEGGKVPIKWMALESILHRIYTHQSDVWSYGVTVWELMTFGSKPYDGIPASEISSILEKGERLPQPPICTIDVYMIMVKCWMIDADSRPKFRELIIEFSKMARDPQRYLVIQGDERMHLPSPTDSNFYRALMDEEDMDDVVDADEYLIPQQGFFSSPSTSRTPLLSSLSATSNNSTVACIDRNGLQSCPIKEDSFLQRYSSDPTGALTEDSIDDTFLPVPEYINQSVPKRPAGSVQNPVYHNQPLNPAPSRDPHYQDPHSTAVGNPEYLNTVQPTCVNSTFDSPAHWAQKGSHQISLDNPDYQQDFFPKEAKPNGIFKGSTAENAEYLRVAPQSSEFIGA

Row | SMILES | IC50 [1] | IC50 [2] | IC50 [3] | IC50 [4] | IC50 [5]
1 | C#Cc1cc(NC(=O)NCc2ccccn2)nc2nc(Nc3ccc(N4CCN(C)CC4)cc3)ncc12 [Example 49, 3-(5-ethynyl-2-{[4-(4-methylpiperazin-1-yl)phenyl]amino}pyrido[2,3-d]pyrimidin-7-yl)-1-(pyridin-2-ylmethyl)urea] | > 3 µM | 0.02 to 0.1 µM | < 1 µM | 0.5 to 1 µM | 1 to 3 µM
2 | C#Cc1cc(NC(=O)NC2CCCC2)nc2nc(Nc3ccc(OC4CN(C)C4)cc3)ncc12 [Example 80] | 1 to 3 µM | < 0.02 µM | < 1 µM | > 3 µM | < 0.5 µM
3 | C#Cc1cc(NC(=O)N(C)C2CCCC2)nc2nc(Nc3ccc(N4CCN(C)CC4)cc3)ncc12 [Example 74, 3-Cyclopentyl-1-(5-ethynyl-2-{[4-(4-methylpiperazin-1-yl)phenyl]amino}pyrido[2,3-d]pyrimidin-7-yl)-3-methylurea] | > 3 µM | 0.1 to 1 µM | 1 to 10 µM | > 3 µM | > 3 µM
4 | C#Cc1cc(NC(=O)NC2CCCC2)nc2nc(Nc3ccc(N4CCOCC4)cc3)ncc12 [Example 75] | < 0.5 µM | < 0.02 µM | < 1 µM | < 0.5 µM | < 0.5 µM
5 | C#Cc1cc(N2C(=O)NCC23CCCC3)nc2nc(Nc3ccc(N4CCOCC4)cc3)ncc12 [Example 91, 1-(5-Ethynyl-2-{[4-(morpholin-4-yl)phenyl]amino}pyrido[2,3-d]pyrimidin-7-yl)-1,3-diazaspiro[4.4]nonan-2-one] | 1 to 3 µM | < 0.02 µM | < 1 µM | 0.5 to 1 µM | 1 to 3 µM
6 | C#Cc1cc(N2C(=O)OCC2COC)nc2nc(Nc3ccc(N4CCN(C)CC4)cc3)ncc12 (centres unmarked) [Example 116, 3-(5-Ethynyl-2-{[4-(4-methylpiperazin-1-yl)phenyl]amino}pyrido[2,3-d]pyrimidin-7-yl)-4-(methoxymethyl)-1,3-oxazolidin-2-one] | > 3 µM | < 0.02 µM | 1 to 10 µM | < 0.5 µM | 0.5 to 1 µM
7 | C#Cc1c(C)c(OCC2CCCC2)nc2nc(Nc3ccc(N4CCN(C)CC4)cc3)ncc12 [Example 23, 7-(cyclopentylmethoxy)-5-ethynyl-6-methyl-N-[4-(4-methylpiperazin-1-yl)phenyl]pyrido[2,3-d]pyrimidin-2-amine] | > 3 µM | 0.1 to 1 µM | > 10 µM | > 3 µM | > 3 µM
8 | C#Cc1cc(N2C(=O)N(C)CC23CCCC3)nc2nc(Nc3ccc(S(=O)(=O)N(C)C)cc3)ncc12 [Example 109, 4-[(5-Ethynyl-7-{3-methyl-2-oxo-1,3-diazaspiro[4.4]nonan-1-yl}pyrido[2,3-d]pyrimidin-2-yl)amino]-N,N-dimethylbenzenesulfonamide] | 1 to 3 µM | 0.1 to 1 µM | > 10 µM | > 3 µM | > 3 µM
9 | C#Cc1cc(NC(=O)NC2CCCC2)nc2nc(Nc3ccc(N4CCN(C)CC4)c(NCC4CCC4)c3)ncc12 [Example 63] | < 0.5 µM | 0.02 to 0.1 µM | < 1 µM | < 0.5 µM | 1 to 3 µM
10 | C#Cc1cc(NC(=O)NC2CCCC2)nc2nc(Nc3ccc(N(C)C(C)=O)cc3)ncc12 [Example 77, N-[4-((7-[(Cyclopentylcarbamoyl)amino]-5-ethynyl)pyrido[2,3-d]pyrimidin-2-ylamino)phenyl]-N-methylacetamide] | > 3 µM | < 0.02 µM | < 1 µM | 0.5 to 1 µM | > 3 µM
11 | C#Cc1cc(N2C(=O)N(C)CC2C(C)C)nc2nc(Nc3ccc(N4CCN(C)CC4)cc3)ncc12 (centres unmarked) [Example 102, 3-(5-Ethynyl-2-{[4-(4-methylpiperazin-1-yl)phenyl]amino}pyrido[2,3-d]pyrimidin-7-yl)-4-isopropyl-1-methylmidazolidin-2-one] | > 3 µM | < 0.02 µM | 1 to 10 µM | > 3 µM | > 3 µM
12 | C#Cc1cc(NC(=O)Nc2ncc[nH]2)nc2nc(Nc3ccc(N4CCN(C)CC4)cc3)ncc12 [Example 59, 1-(5-ethynyl-2-{[4-(4-methylpiperazin-1-yl)phenyl]amino}pyrido[2,3-d]pyrimidin-7-yl)-3-(1H-imidazol-2-yl)urea] | > 3 µM | < 0.02 µM | < 1 µM | 1 to 3 µM | 1 to 3 µM
13 | C#Cc1cc(OC)nc2nc(Nc3ccc(N4CCN(C)CC4)cc3)ncc12 [Example 3, 5-ethynyl-7-methoxy-N-(4-(4-methylDiDerazin-1-yl)phenyl)vrido[2,3-d]pyrimidin-2-amine] | > 3 µM | 0.1 to 1 µM | > 10 µM | 0.5 to 1 µM | 1 to 3 µM
14 | C#Cc1cc(NC(=O)NC2CCCC2)nc2nc(Nc3ccccc3N3CCC(CS(C)(=O)=O)CC3)ncc12 [Example 90, 3-Cyclopentyl-1-[5-ethynyl-2-({2-[4-(methanesulfonylmethyl)piperidin-1-yl]phenyl}amino)pyrido[2,3-d]pyrimidin-7-yl]urea] | > 3 µM | 1 to 50 µM | > 10 µM | > 3 µM | > 3 µM
15 | C#Cc1cc(NC(=O)NC2CCCC2)nc2nc(Nc3cccc(CN4CCC(CS(C)(=O)=O)CC4)c3)ncc12 [Example 87] | 1 to 3 µM | 0.02 to 0.1 µM | < 1 µM | > 3 µM | < 0.5 µM
16 | C#Cc1cc(-n2cc(C)cn2)nc2nc(Nc3ccc(N(C)CCN(C)C)cc3)ncc12 [Example 34, N^1-[2-(dimethylamino)ethyl]-N^4-[5-ethynyl-7-(4-methylpyrazol-1-yl)pyrido[2,3-d]pyrimidin-2-yl]-N^1-methylbenzene-1,4-diamine] | > 3 µM | < 0.02 µM | 1 to 10 µM | > 3 µM | 1 to 3 µM
17 | C#Cc1cc(NC(=O)OC2CCCC2)nc2nc(Nc3ccc(N4CCN(C)CC4)cc3)ncc12 [Example 65, cyclopentyl (5-ethynyl-2-((4-(4-methylpiperazin-1-yl)phenyl)amino)pyrido[2,3-d]pyrimidin-7-yl)carbamate] | > 3 µM | 0.1 to 1 µM | > 10 µM | 1 to 3 µM | > 3 µM
18 | C#Cc1cc(OC)nc2nc(Nc3ccc(N4CCN(C)CC4)c(NCC4CCC4)c3)ncc12 [Example 10, N^3-(cyclobutylmethyl)-N^1-{5-ethynyl-7-methoxypyrido[2,3-d]pyrimidin-2-yl}-4-(4-methylpiperazin-1-yl)benzene-1,3-diamine] | > 3 µM | 0.02 to 0.1 µM | 1 to 10 µM | > 3 µM | > 3 µM
19 | C#Cc1cc(OCCc2ccccc2)nc2nc(Nc3ccc(N4CCN(C)CC4)cc3)ncc12 [Example 21, 5-ethynyl-N-[4-(4-methylpiperazin-1-yl)phenyl]-7-(2-phenylethoxy)pyrido[2,3-d]pyrimidin-2-amine] | > 3 µM | 0.1 to 1 µM | > 10 µM | > 3 µM | > 3 µM
20 | C#Cc1cc(N2C(=O)NCC23CCCC3)nc2nc(Nc3ccc(N(C)C(C)=O)cc3)ncc12 [Example 93, N-{4-[(5-Ethynyl-7-{2-oxo-1,3-diazaspiro[4.4]nonan-1-yl}pyrido[2,3-d]pyrimidin-2-yl)amino]phenyl}-N-methylacetamide] | 1 to 3 µM | 0.02 to 0.1 µM | > 10 µM | > 3 µM | 1 to 3 µM
21 | C#Cc1cc(N2C(=O)OCC2C2CCCC2)nc2nc(Nc3ccc(N4CCN(C)CC4)cc3)ncc12 (centres unmarked) [Example 111, 4-Cyclopentyl-3-(5-ethynyl-2-{[4-(4-methylpiperazin-1-yl)phenyl]amino}pyrido[2,3-d]pyrimidin-7-yl)-1,3-oxazolidin-2-one] | > 3 µM | < 0.02 µM | 1 to 10 µM | 0.5 to 1 µM | 0.5 to 1 µM
22 | C#Cc1cc(N2C(=O)NC[C@@H]2C(C)C)nc2nc(Nc3ccc(N4CCN(C)CC4)cc3)ncc12 [Example 99, (5S)-1-(5-Ethynyl-2-{[4-(4-methylpiperazin-1-yl)phenyl]amino}pyrido[2,3-d]pyrimidin-7-yl)-5-isopropylmidazolidin-2-one] | > 3 µM | < 0.02 µM | < 1 µM | < 0.5 µM | < 0.5 µM
